SMILES strings stand for the structures.

Assay [1] has as its system BCL6 reporter construct (3xBCL6-TK-Luc) in SuDHL4 cells. Briefly: Cell-based luciferase assay. The settings on record: Homo sapiens, SU-DHL-4, 48 h, read-out: Luciferase-Assay EC50, uM), SuDHL4-3xBCL6-TK-Luc cells, two days, high dose 10 uM. Summed up: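 SuDHL4 cells stably carrying a 3×BCL6-site TK-promoter firefly luciferase reporter, seeded at 15,000 cells/well, were dosed over a 10-point range (top 10 uM) and grown two days at 37 °C, 5% CO2. Luminescence then read after adding neolite reagent at room temperature.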

The test system of a further assay is Karpas422 cells. Briefly: Tumor cell growth inhibition assay. Format: cell-based. The settings on record: Homo sapiens, KARPAS-422, 144 h, read-out: Tumor Growth Inhibition in Karpas-422 (IC50, uM), Karpas422 cells, six days, ATPlite. Summed up:
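Karpas422 cells (2,000/well) in Alpha-MEM with 10% FBS dosed across 10 concentrations (top 5 uM) and grown six days at 37° C., 5% CO2. Viability read as ATPlite luminescence.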

The target in another assay is BCL6 BTB domain (Homo sapiens (Human), UniProt P41182). Briefly: Surface plasmon resonance (SPR) assay. The format is binding. As to conditions: BCL6 BTB domain captured on SA chip, single cycle kinetics. For orientation: In SPR one partner is held on a chip, and binding of the other changes the refractive index at the surface.

Broadly, the EC50 is the concentration at which the effect is half-maximal. The term IC50 denotes the concentration at which inhibition is half-maximal. Usually Kd stands for the concentration at which binding is half-saturated. Higher therefore signals lower affinity. Regarding `Cc1nc2c(c(-c3cc(C(N)=O)c(O)c(F)c3F)cn2CC(=O)Nc2cc(N3CCN(C)CC3)ncc2Cl)c(=O)n1C` [Compound I-305], the EC50 in assay [1] was 0.647 µM. Besides, in the assay on Karpas422 cells, the IC50 was 1.32 µM. This molecule also displayed a Kd at BCL6 BTB domain of 70.5 nM.
Taken in the same sequence, the figures for `CO[C@@H]1CN(c2cc(NC(=O)Cn3cc(-c4cc(Cl)c(O)c(C(N)=O)c4)c4c(=O)n(C)c(C)nc43)c(Cl)c(F)n2)C[C@@H]1F` [Compound I-399] were 0.268 µM, 0.535 µM and 30.7 nM.
Taken in the same sequence, the figures for `C[C@H]1CN(C2COC2)CCN1c1cc(NC(=O)Cn2cc(-c3cc(F)c(O)c(C(N)=O)c3)c3c(=O)n(C)cnc32)c(Cl)c(F)n1` [Compound I-438] were 0.0686 µM, 0.0508 µM and 2.5 nM.
For `C[C@@H]1CN(c2cc(NC(=O)Cn3cc(-c4cc(Cl)c(O)c(C(N)=O)c4)c4c(=O)[nH]cnc43)c(Cl)cn2)C[C@H](C)O1` [Compound I-166], the EC50 in assay [1] was determined as 0.184 µM. Besides, the IC50 in the assay on Karpas422 cells was 0.0862 µM. The molecule also showed a Kd at BCL6 BTB domain of 15 nM.
Taken in the same sequence, the figures for `CN1CCC2(C1)CN(c1cc(NC(=O)Cn3cc(-c4cc(Cl)c(O)c(C(N)=O)c4)c4c(=O)n(C)cnc43)c(Cl)cn1)CCO2` (stereo not drawn) [Compound I-133] were 0.137 µM, 0.199 µM and 30 nM.
Consider `Cc1nc2c(c(-c3cc(Cl)c(O)c(C(N)=O)c3)cn2CC(=O)Nc2cc(N3CCN(C(C)C)C[C@@H]3C)ncc2Cl)c(=O)n1C` [Compound I-272], for which the EC50 in assay [1] amounted to 0.133 µM. In the assay with Karpas422 cells, the IC50 worked out at 0.145 µM. At BCL6 BTB domain, the Kd amounted to 14.8 nM.
For the molecule `C[C@H]1CN(CCC(F)(F)F)CCN1c1cc(NC(=O)Cn2cc(-c3cc(C(N)=O)c(O)c(F)c3F)c3c(=O)n(C)cnc32)c(Cl)cn1` [Compound I-453], the EC50 in assay [1] was found to be 0.41 µM. Also, the IC50 with Karpas422 cells amounted to 0.16 µM. On BCL6 BTB domain, the Kd was found to be 54.3 nM.
Taken in the same sequence, the figures for `Cn1cnc2c(c(-c3cc(Cl)c(O)c(C(N)=O)c3)cn2CC(=O)Nc2cc(N3CCC(F)C3)ncc2Cl)c1=O` (stereo not drawn) [Compound I-67] were 0.296 µM, 0.267 µM and 14 nM.
Consider `C[C@H]1CN(C)C[C@H](C)N1c1cc(NC(=O)Cn2cc(-c3cc(C(N)=O)c(O)c(F)c3F)c3c(=O)n(C)cnc32)c(Cl)c(F)n1` [Compound I-487], for which, in assay [1], the EC50 stood at 1.29 µM. The IC50 in the assay on Karpas422 cells was determined as 1.8 µM. At BCL6 BTB domain, this molecule registered a Kd of 122 nM.
On the same counts, the results for `CN1CC2CC1CN2c1cc(NC(=O)Cn2cc(-c3cc(C(N)=O)c(O)c(F)c3F)c3c(=O)n(C)cnc32)c(Cl)cn1` (stereo not drawn) [Compound I-324] are 10 µM, 10 µM and 264 nM.
In the case of `CN1C(C)(C)CN(c2cc(NC(=O)Cn3cc(-c4cc(F)c(O)c(C(N)=O)c4)c4c(=O)n(C)cnc43)c(Cl)cn2)CC1(C)C` [Compound I-221], the EC50 in assay [1] worked out at 0.14 µM. For the same molecule, the IC50 with Karpas422 cells turned out to be 0.11 µM. Besides, on BCL6 BTB domain, the Kd was determined as 14.1 nM.
On the same counts, the results for `COc1c(O)c(C(N)=O)cc(-c2cn(CC(=O)Nc3cc(N4CCOC[C@@H]4C)ncc3Cl)c3ncn(C)c(=O)c23)c1F` [Compound I-168] are 1.3 µM, 0.769 µM and 74 nM.
As for `CN(C)C1CN(c2cc(NC(=O)Cn3cc(-c4cc(C(N)=O)c(O)c(F)c4F)c4c(=O)n(C)cnc43)c(Cl)cn2)C1` [Compound I-326], the EC50 in assay [1] came out at 2.35 µM. In the assay with Karpas422 cells, the IC50 came out at 2 µM. The molecule further returned a Kd on BCL6 BTB domain of 64.5 nM.
Turning to `Cc1nc2c(c(-c3cc(C(N)=O)c(O)c4c3OCO4)cn2CC(=O)Nc2cc(N3CCNC[C@@H]3C)nc(F)c2Cl)c(=O)n1C` [Compound I-230], in assay [1], the EC50 stood at 0.0625 µM. The IC50 in the assay on Karpas422 cells amounted to 0.0157 µM. In addition, the affinity at BCL6 BTB domain, expressed as Kd, was 2.32 nM.
On the same counts, the results for `C[C@@H]1CN(CCN(C)c2cc(NC(=O)Cn3cc(-c4cc(Cl)c(O)c(C(N)=O)c4)c4c(=O)n(C)cnc43)c(Cl)cn2)C[C@H](C)O1` [Compound I-73] are 0.233 µM, 0.165 µM and 19 nM.
For `CC(C)N1CCN(c2cc(NC(=O)Cn3cc(-c4cc(Cl)c(O)c(C(N)=O)c4)c4c(=O)n(C)cnc43)c(Cl)cn2)[C@@H](C)C1` [Compound I-271], in assay [1], the EC50 is 0.208 µM. Also, the IC50 with Karpas422 cells turned out to be 0.22 µM. The same molecule had a Kd on BCL6 BTB domain of 16 nM.
As to `Cn1cnc2c(c(-c3cc(Cl)c(O)c(C(N)=O)c3)cn2CC(=O)Nc2cc(N3CCOC(C)(C)C3)ncc2Cl)c1=O` [Compound I-147], the EC50 in assay [1] was 0.144 µM. The IC50 with Karpas422 cells was 0.0995 µM. Also, the Kd on BCL6 BTB domain was found to be 19.6 nM.
Take `Cn1cnc2c(c(-c3cc(C(N)=O)c(O)c(F)c3F)cn2CC(=O)Nc2cc(N3C4CCC3CN(CC(F)(F)F)C4)ncc2Cl)c1=O` [Compound I-465]: in assay [1], the 50% effective concentration (EC50) was 4.47 µM. Besides, the IC50 in the assay on Karpas422 cells came to 1.17 µM. Also, the affinity on BCL6 BTB domain, expressed as Kd, was 84.9 nM.
Taken in the same sequence, the figures for `Cc1nc2c(c(-c3cc(Cl)c(O)c(C(N)=O)c3)cn2CC(=O)Nc2cc(N3C[C@@H](C)O[C@@H](C)C3)ncc2Cl)c(=O)[nH]1` [Compound I-85] were 0.076 µM, 0.064 µM and 11 nM.
Turning to `Cn1cnc2c(c(-c3cc(C(N)=O)c(O)c(F)c3F)cn2CC(=O)Nc2cc(N3CCC3)nc(F)c2Cl)c1=O` [Compound I-488], the EC50 in assay [1] came to 1.28 µM. Besides, in the assay on Karpas422 cells, the IC50 was determined as 0.417 µM. The affinity on BCL6 BTB domain, expressed as Kd, was 71.6 nM.
Consider `C[C@H]1CN(CC(O)CCO)CCN1c1cc(NC(=O)Cn2cc(-c3cc(C(N)=O)c(O)c(F)c3F)c3c(=O)n(C)cnc32)c(Cl)c(F)n1` (stereo partly drawn) [Compound I-459, 5-(7-(2-((3-chloro-6-((2S)-4-(2,4-dihydroxybutyl)-2-methylpiperazin-1-yl)-2-fluoropyridin-4-yl)amino)-2-oxoethyl)-3-methyl-4-oxo-4,7-dihydro-3H-pyrrolo[2,3-d]pyrimidin-5-yl)-3,4-difluoro-2-hydroxybenzamide], for which the EC50 in assay [1] turned out to be 0.945 µM. Further, in the assay with Karpas422 cells, the IC50 is 1.06 µM. Moreover, at BCL6 BTB domain, the Kd was 6.55 nM.
On the same counts, the results for `Cn1cnc2c(c(-c3cc(Cl)c(O)c(C(N)=O)c3)cn2CC(=O)Nc2cc(N3CCCC4(CCOCC4)C3)ncc2Cl)c1=O` [Compound I-156] are 0.941 µM, 0.576 µM and 49.6 nM.
Taken in the same sequence, the figures for `C[C@H]1CN(C2CCC2)CCN1c1cc(NC(=O)Cn2cc(-c3cc(C(N)=O)c(O)c(F)c3F)c3c(=O)n(C)cnc32)c(Cl)cn1` [Compound I-359] were 0.521 µM, 1.34 µM and 42.2 nM.
On the same counts, the results for `C=C(C)c1nc2c(c(-c3cc(Cl)c(O)c(C(N)=O)c3)cn2CC(=O)Nc2cc(N3CCN(C)C[C@@H]3C)ncc2Cl)c(=O)n1C` [Compound I-322] are 3.09 µM, 1.19 µM and 34 nM.
As for `CC(C)N1CCN(c2cc(NC(=O)Cn3cc(-c4cc(F)c(O)c(C(N)=O)c4)c4c(=O)n(C)cnc43)c(Cl)cn2)[C@@H](C)C1` [Compound I-295], in assay [1], the EC50 is 0.14 µM. Also, the IC50 in the assay with Karpas422 cells worked out at 0.106 µM. The molecule further registered a Kd on BCL6 BTB domain of 7.84 nM.
On the same counts, the results for `C[C@H]1COCCN1c1cc(NC(=O)Cn2cc(-c3cc(Cl)c(O)c(C(N)=O)c3)c3c(=O)n(C)c(-c4ccccc4)nc32)c(Cl)cn1` [Compound I-248] are 11.9 µM, 0.29 µM and 326 nM.
On the same counts, the results for `CN(C)CC1COCCN1c1cc(NC(=O)Cn2cc(-c3cc(Cl)c(O)c(C(N)=O)c3)c3c(=O)n(C)cnc32)c(Cl)cn1` (stereo not drawn) [Compound I-330] are 0.89 µM, 0.56 µM and 39.4 nM.
Taken in the same sequence, the figures for `CN1CC2CC1CN2c1cc(NC(=O)Cn2cc(-c3cc(Cl)c(O)c(C(N)=O)c3)c3c(=O)n(C)cnc32)c(Cl)cn1` (stereo not drawn) [Compound I-367] were 5.3 µM, 3.49 µM and 41.9 nM.
As to `Cc1nc2c(c(-c3cc(F)c(O)c(C(N)=O)c3)cn2CC(=O)Nc2cc(N3CC(C)(C)NC(C)(C)C3)ncc2Cl)c(=O)n1C` [Compound I-243], in assay [1], the EC50 stood at 0.19 µM. Further, the IC50 with Karpas422 cells is 0.134 µM. This molecule also returned a Kd on BCL6 BTB domain of 12.4 nM.
For the molecule `C[C@@H]1CN(c2cc(NC(=O)Cn3cc(-c4cc(C(N)=O)c(O)c(F)c4F)c4c(=O)n(C)cnc43)c(Cl)cn2)C[C@H](C)O1` [Compound I-179], in assay [1], the EC50 was 0.612 µM. For the same molecule, in the assay on Karpas422 cells, the IC50 turned out to be 0.681 µM. The molecule further yielded a Kd at BCL6 BTB domain of 77.7 nM.
Taken in the same sequence, the figures for `C[C@@H]1CN(C)C[C@H](C)N1c1cc(NC(=O)Cn2cc(-c3cc(C(N)=O)c(O)c(F)c3F)c3c(=O)n(C)cnc32)c(Cl)c(F)n1` [Compound I-229] were 0.102 µM, 0.0784 µM and 16.3 nM.
Taken in the same sequence, the figures for `C[C@H]1CN(C)CCN1c1cc(NC(=O)Cn2cc(-c3cc(F)c(O)c(C(N)=O)c3)c3c(=O)n(CC#Cc4cnn(C)c4)cnc32)c(Cl)cn1` [Compound I-480] were 2.21 µM, 0.704 µM and 137 nM.
Taken in the same sequence, the figures for `CN1CCN(c2cc(NC(=O)Cn3cc(-c4cc(C(N)=O)c(O)c(F)c4F)c4c(=O)n(C)cnc43)c(Cl)cn2)CC1` [Compound I-231] were 1.47 µM, 1.18 µM and 89.9 nM.
In the case of `Cn1cnc2c(c(-c3cc(Cl)c(O)c(C(N)=O)c3)cn2CC(=O)Nc2cc(N3CC4CC3CN4CC(F)(F)F)ncc2Cl)c1=O` (stereo not drawn) [Compound I-362], the EC50 in assay [1] worked out at 0.226 µM. Moreover, the IC50 in the assay with Karpas422 cells was determined as 0.337 µM. The same molecule yielded a Kd on BCL6 BTB domain of 38 nM.

Source of the values: patent publication US11518764B2, “Substituted heteroaryls as inhibitors of the BCL6 BTB domain protein-protein interaction” (Ontario Institute for Cancer Research (OICR), priority 2018, dated 2022).
